{
  "source": "patent US20240124610A1",
  "about": "“METHODS FOR TREATING HER2-NEGATIVE OR HER2-LOW CANCER” (Washington University, priority 2022, published 2024)",
  "key": {"BCAR4-expressing cells": {"test_system": "BCAR4-expressing cells", "experiment": "Cell growth under lapatinib treatment (FIG. 42)", "type": "cell-based", "details": "BCAR4-expressing cells treated with lapatinib", "from_the_text": "In breast cancer HER3 preferentially binds to HER2 to form a heterodimer."}, "[1]": {"test_system": "HER2/HER3 signaling in ZR-75-1 cells", "experiment": "Western blot of HER3/AKT signaling in lapatinib-treated cells (FIG. 29D)", "type": "cell-based", "design": "dose or concentration left out as unconfirmed", "details": "ZR-75-1 cells expressing full length BCAR4 or gene fusions", "protocol": "Antibodies against FLAG (2368S; RRID:AB_2217020, 1:1000; Cell Signaling Technology), actin (3700S; RRID:AB_2242334, 1:10,000; Cell Signaling Technology), Goat anti-mouse or anti-rabbit peroxidase-conjugated secondary antibodies (Thermo Fisher Scientific) were used for experiments. Protein samples were prepared with ice-cold RIPA lysis buffer (25 mmol/L Tris pH7.5, 1% NP40, 0.1% SDS, 150 mmol/L NaCl, 0.5% sodium deoxycholate, and 1× Halt Protease Inhibitor Cocktail; Thermo Fisher Scientific). Lysate was subjected to a short sonication and then clarified by centrifugation at maximum speed, 4° C. for 10 minutes. Protein concentration was determined with the DC Protein Assay (BioRad). Samples were diluted in loading buffer, boiled, and equal protein concentrations (20-30 mg) loaded and resolved by SDS-polyacrylamide gel electrophoresis in 12% or 4% to 12% Bolt Bis-Tris precast gels (Invitrogen). Gels were transferred at 60° C. for 1 hour to a nitrocellulose membrane (BioRad). Proteins were detected with specific antibodies and visualized and quantified on the ChemDoc MP Imaging System (BioRad) using secondary antibodies and Clarity Western ECL Substrate (Thermo Fisher Scientific)."}, "[2]": {"test_system": "ZR751 cells overexpressing BCAR4 full length or gene fusions", "experiment": "Cell viability under lapatinib treatment (FIG. 24)", "type": "cell-based", "details": "ZR751 cells overexpressing BCAR4 full length or gene fusions vs control cells without BCAR4, increased lapatinib"}, "[3]": {"test_system": "patients expressing BCAR4", "details": "letrozole (AI treatment); public data GSE41994; FIG. 39; cited from earlier work"}, "[4]": {"test_system": "MCF7 (ER+/HER2-negative) cells expressing full length BCAR4 or LITAF-BCAR4 gene fusion", "experiment": "Tamoxifen treatment of BCAR4-overexpressing breast cancer cells (FIG. 37)", "type": "cell-based", "details": "in vitro", "from_the_text": "FIG. 37 is a graph showing BCAR4 gene fusion-expressing cells are resistance to Tamoxifen treatment in breast cancer in accordance with the present disclosure. MCF7 (ER+/HER2-negative) overexpressing cell lines expressing full length BCAR4 (B4) or LITAF-BCAR4 gene fusion (LB) were used.\nBCAR4 gene fusion-expressing cells are resistant to Tamoxifen treatment in breast cancer (see e.g., FIG. 37). It is known that full length BCAR4 is resistant to tamoxifen therapy, but no one has shown that BCAR4 gene fusions cause resistance. BCAR4-fusions express only the 4th exon of BCAR4 gene."}, "breast cancer patients": {"test_system": "breast cancer patients", "experiment": "Survival analysis of tamoxifen-treated breast cancer patients by BCAR4 expression", "type": "in vivo, human", "from_the_text": "FIG. 25 is a survival curve showing BCAR4-positive patients (blue) have worse outcome when treated with tamoxifen in accordance with the present disclosure.\nBCAR4+ is categorized as the top 20% and BCAR4− as the bottom 80%."}},
  "note": "“Also recorded” adds a separate entry of the source.",
  "data": [
    {"smiles": "CS(=O)(=O)CCNCc1ccc(-c2ccc3ncnc(Nc4ccc(OCc5cccc(F)c5)c(Cl)c4)c3c2)o1", "note": "[lapatinib]", "values": [
      {"measurement": "cell growth", "setting": "BCAR4-expressing cells", "result": "decreased growth"},
      {"measurement": "phosphorylation of HER3 and downstream activation of AKT", "setting": "[1]", "result": "attenuated these changes; also recorded: inhibited"},
      {"measurement": "phosphorylation of HER3 and downstream activation of AKT", "setting": "[1]; listed as Lapatinib", "result": "lose HER3 activation"},
      {"measurement": "cell viability", "setting": "[2]", "result": "decreased cell viability"}
    ]},
    {"smiles": "N#Cc1ccc(C(c2ccc(C#N)cc2)n2cncn2)cc1", "note": "[letrozole]", "values": [
      {"measurement": "Progression Free Survival of top 25% of patients expressing BCAR4", "setting": "[3]", "result": "worse Progression Free Survival"}
    ]},
    {"smiles": "CC/C(=C(\\c1ccccc1)c1ccc(OCCN(C)C)cc1)c1ccccc1", "note": "[tamoxifen]", "values": [
      {"measurement": "response to Tamoxifen treatment", "setting": "[4]", "result": "resistant"},
      {"measurement": "outcome of BCAR4-high patients", "setting": "breast cancer patients; tamoxifen only treatment, TCGA cohort (n=186), FIG. 35", "result": "worse outcomes"},
      {"measurement": "distant metastasis free survival of BCAR4-high patients", "setting": "breast cancer patients; tamoxifen treatment, GSE6532 cohort, FIG. 36", "result": "worse distant metastasis free survival"},
      {"measurement": "outcome of early stage BCAR4-positive vs BCAR4-negative patients", "setting": "breast cancer patients; tamoxifen, microarray data of early-stage breast cancer patients, FIG. 25", "result": "poor outcome"}
    ]}
  ]
}
